Laboratory results: ChEMBL document CHEMBL1201862, “PubChem BioAssay data set” (2004)
Calls of active or inactive are those of the source.

What was measured:
[1] = target: T1, Dual specificity protein phosphatase 6 (Rattus norvegicus, UniProt Q64346); assay: inhibition of rat DUSP6 enzyme activity – biochemical, in vitro, primary screen (AID 425)
T1 sequence (Q64346 whole entry): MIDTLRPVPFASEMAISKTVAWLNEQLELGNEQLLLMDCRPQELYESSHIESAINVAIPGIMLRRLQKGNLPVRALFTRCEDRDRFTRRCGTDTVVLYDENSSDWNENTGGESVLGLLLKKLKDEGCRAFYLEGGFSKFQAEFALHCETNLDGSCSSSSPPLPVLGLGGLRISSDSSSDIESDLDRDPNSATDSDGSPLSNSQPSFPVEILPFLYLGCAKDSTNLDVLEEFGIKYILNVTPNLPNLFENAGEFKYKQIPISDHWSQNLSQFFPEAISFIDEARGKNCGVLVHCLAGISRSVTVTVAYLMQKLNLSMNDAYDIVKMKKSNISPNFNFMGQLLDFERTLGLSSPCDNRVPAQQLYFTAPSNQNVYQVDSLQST

[2] = target: Lysine-specific demethylase 4C (Homo sapiens, UniProt Q9H3R0); assay: inhibition of JMJD2C H3K9me3 demethylation – biochemical, DELFIA europium, cherry-picked samples, dose response (AID 488835); type: functional
[3] = target: Lysine-specific demethylase 4A (Homo sapiens, UniProt O75164); assay: inhibition of JMJD2A H3K9me3 demethylation – biochemical, DELFIA europium, cherry-picked samples, selectivity assay for GASC-1 inhibitor project, dose response (AID 488840)
[4] = target: Guanyl-specific ribonuclease T1 (Aspergillus oryzae (strain ATCC 42149 / RIB 40), UniProt P00651); assay: inhibition of ribonuclease T1 activity – biochemical, fluorescence polarization, 1536-well, counter-screen for TPT1 inhibitor project, dose response (AID 2167)
[5] = target: T2, Dual specificity protein phosphatase 3 (Homo sapiens, UniProt P51452); assay: VHR1 phosphatase inhibitors, biochemical (AID 1878)
[6] = target: T2, Dual specificity protein phosphatase 3; assay: VHR1 phosphatase inhibitors, primary screen, biochemical, absorbance, uHTS (AID 1654)
[7] = target: Likely tRNA 2'-phosphotransferase (Candida albicans (strain SC5314 / ATCC MYA-2876) (Yeast), UniProt Q5A7N4); assay: inhibition of Candida TPT1 enzyme activity – biochemical, fluorescence polarization, dose response (AID 2160)
Hexokinase HKDC1 = target: T3, Hexokinase HKDC1 (Homo sapiens, UniProt Q2TB90); assay: inhibition of HKDC1 glucose phosphorylation – biochemical, W721R variant, dose response (AID 504729); type: functional
T3 sequence (Q2TB90 whole entry): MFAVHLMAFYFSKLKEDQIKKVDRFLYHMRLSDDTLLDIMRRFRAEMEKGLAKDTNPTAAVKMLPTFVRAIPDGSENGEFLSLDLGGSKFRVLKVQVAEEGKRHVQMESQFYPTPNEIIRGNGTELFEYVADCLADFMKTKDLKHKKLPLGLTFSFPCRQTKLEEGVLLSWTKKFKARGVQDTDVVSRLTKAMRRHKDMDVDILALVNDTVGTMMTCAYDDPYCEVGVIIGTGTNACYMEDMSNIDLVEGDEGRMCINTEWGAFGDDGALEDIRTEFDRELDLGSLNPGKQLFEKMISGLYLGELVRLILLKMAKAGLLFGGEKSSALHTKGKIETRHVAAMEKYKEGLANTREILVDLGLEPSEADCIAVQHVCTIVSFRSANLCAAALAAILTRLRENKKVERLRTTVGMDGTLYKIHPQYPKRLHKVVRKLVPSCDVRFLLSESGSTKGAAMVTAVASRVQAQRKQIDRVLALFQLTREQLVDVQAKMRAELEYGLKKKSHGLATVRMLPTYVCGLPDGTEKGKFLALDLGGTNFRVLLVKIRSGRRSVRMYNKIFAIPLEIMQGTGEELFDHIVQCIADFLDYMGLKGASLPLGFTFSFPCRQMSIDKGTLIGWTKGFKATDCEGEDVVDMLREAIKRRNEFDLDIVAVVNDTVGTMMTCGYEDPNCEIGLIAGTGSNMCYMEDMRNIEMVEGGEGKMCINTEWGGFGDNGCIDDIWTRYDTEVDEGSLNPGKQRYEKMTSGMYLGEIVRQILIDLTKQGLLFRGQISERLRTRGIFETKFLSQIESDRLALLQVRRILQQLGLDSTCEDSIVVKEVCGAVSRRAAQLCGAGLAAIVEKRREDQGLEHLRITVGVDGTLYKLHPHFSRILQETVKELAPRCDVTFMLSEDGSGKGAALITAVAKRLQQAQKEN

[8] = target: Intestinal-type alkaline phosphatase (Homo sapiens, UniProt P09923); assay: inhibition of human intestinal alkaline phosphatase – biochemical, dose response (AID 488876); type: functional
Procathepsin L = Procathepsin L (Homo sapiens, UniProt P07711); assay: CTSL1 protease inhibition – biochemical, QFRET, 1536-well, counter-screen for M1/M17 aminopeptidase inhibitor project, dose response (AID 2214)
[9] = target: Intestinal-type alkaline phosphatase (Mus musculus, UniProt P24822); assay: PubChem AID 488785; type: functional
Aspartyl aminopeptidase = target: T4, Aspartyl aminopeptidase (Plasmodium falciparum 3D7, UniProt Q8I2J3); assay: Counterscreen for inhibitors of M1 and M17 aminopeptidases: QFRET-based biochemical high throughput dose response assay for inhibitors of the Plasmodium falciparum M18 Aspartyl Aminopeptidase (PFM18AAP). [Related PubChem assays: 1619 (Screening assay (M17LAP inhibitors).), 1445 (Screening assay (M1AAP inhibitors).)]
T4 sequence (Q8I2J3 whole entry): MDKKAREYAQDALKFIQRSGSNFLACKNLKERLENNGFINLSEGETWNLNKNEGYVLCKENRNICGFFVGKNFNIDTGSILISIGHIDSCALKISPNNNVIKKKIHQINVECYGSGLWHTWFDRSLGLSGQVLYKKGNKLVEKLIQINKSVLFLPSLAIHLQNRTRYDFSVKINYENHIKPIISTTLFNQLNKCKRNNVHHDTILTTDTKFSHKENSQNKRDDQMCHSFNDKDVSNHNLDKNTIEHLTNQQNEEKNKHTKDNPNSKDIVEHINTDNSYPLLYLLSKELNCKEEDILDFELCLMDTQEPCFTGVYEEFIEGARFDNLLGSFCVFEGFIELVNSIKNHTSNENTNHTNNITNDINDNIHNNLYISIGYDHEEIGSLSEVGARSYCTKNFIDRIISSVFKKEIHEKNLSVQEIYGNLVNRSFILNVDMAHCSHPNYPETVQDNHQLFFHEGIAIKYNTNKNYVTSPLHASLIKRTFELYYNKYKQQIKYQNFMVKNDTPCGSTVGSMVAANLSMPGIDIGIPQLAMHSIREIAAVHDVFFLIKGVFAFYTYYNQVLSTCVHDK

Aminopeptidase N = target: T5, Aminopeptidase N (Plasmodium falciparum FcB1/Columbia, UniProt O96935); assay: malaria alanyl aminopeptidase activity blockers – biochemical, fluorogenic H-Leu-NHMec substrate, 1536-well (AID 1445); design: species or system Plasmodium falciparum 3D7, 3D7
T5 sequence (O96935 whole entry): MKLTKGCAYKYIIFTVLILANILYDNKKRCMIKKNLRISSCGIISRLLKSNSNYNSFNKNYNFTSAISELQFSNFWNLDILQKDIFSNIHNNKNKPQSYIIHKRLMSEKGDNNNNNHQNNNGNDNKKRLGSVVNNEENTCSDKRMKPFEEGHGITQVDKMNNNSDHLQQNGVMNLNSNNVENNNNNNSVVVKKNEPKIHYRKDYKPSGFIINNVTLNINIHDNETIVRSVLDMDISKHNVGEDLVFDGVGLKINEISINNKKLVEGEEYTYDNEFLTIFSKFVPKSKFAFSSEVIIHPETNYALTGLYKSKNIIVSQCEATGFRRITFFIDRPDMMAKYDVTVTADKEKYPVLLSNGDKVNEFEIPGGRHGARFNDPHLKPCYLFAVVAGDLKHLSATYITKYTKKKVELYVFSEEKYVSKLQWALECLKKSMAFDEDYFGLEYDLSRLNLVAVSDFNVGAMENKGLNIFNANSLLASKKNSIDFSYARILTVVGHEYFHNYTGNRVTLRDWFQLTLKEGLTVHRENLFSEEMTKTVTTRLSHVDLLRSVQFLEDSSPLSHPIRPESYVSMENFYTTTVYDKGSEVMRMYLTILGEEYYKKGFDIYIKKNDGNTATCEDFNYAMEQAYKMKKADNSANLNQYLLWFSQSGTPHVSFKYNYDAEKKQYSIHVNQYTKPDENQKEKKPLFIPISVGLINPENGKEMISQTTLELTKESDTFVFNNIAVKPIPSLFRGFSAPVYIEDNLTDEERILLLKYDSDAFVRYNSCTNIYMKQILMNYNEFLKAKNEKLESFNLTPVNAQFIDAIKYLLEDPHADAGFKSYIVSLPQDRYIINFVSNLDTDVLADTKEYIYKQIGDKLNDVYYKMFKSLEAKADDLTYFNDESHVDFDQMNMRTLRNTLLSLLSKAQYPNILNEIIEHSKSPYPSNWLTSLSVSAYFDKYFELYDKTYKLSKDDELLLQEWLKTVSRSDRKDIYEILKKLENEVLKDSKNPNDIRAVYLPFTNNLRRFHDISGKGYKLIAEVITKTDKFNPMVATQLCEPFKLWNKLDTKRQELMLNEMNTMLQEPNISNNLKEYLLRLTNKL

[10] = target: T6, Alkaline phosphatase, tissue-nonspecific isozyme (Homo sapiens, UniProt P05186); assay: TNAP enzyme inhibition by screening hits, dose response, selectivity assay for mouse IAP inhibitor project, biochemical, human TNAP, uHTS hits (AID 488906); type: functional
T6 sequence (P05186 whole entry): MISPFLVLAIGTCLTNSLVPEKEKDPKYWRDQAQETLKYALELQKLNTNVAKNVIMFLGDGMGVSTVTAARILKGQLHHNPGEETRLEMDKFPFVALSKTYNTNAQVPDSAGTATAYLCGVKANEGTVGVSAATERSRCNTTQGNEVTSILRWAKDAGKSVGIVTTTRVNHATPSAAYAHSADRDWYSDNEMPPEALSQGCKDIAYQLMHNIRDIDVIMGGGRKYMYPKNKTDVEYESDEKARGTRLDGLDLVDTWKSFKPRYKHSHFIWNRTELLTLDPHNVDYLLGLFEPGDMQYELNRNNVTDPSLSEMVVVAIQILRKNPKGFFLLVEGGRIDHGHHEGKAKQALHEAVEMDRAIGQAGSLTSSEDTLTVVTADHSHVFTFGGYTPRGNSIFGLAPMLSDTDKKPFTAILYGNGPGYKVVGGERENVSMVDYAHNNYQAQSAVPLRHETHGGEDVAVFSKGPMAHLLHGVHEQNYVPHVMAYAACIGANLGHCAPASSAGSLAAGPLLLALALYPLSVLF

[11] = target: Voltage-dependent T-type calcium channel subunit alpha-1H (Homo sapiens, UniProt O95180); assay: inhibition of CACNA1H calcium flux – cell-based, SynthLib3 library, HEK293 Cav3.2, fluorescence (AID 493041); type: functional
[12] = target: T7, Microphthalmia-associated transcription factor (Homo sapiens, UniProt O75030); assay: reducers of TRPM1 reporter luminescence, concentration series – cell-based, SK-MEL-5, cherry-picked, set 3, MITF inhibitor project, dose response (AID 493073); type: functional;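 note: SK-MEL-5 melanoma cells with luciferase driven by the MITF target TRPM1 promoter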
T7 sequence (O75030 whole entry): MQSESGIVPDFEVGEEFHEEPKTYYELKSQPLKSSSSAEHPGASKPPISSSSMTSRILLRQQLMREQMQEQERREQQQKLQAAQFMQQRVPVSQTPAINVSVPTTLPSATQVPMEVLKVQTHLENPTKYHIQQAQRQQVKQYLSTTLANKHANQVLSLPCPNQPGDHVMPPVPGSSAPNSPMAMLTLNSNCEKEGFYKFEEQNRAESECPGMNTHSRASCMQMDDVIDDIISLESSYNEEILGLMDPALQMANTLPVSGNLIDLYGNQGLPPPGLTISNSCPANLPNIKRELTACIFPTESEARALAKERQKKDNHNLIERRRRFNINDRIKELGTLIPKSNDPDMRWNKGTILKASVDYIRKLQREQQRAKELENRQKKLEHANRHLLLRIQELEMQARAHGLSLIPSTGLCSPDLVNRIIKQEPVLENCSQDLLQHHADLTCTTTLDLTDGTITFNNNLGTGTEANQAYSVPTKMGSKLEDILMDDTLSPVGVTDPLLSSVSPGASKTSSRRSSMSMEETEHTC

[13] = Counterscreen for AddAB inhibitors: absorbance-based bacterial cell-based high throughput dose response assay for inhibitors of bacterial viability. [Related pubchem assays (depositor defined):AID435030, AID449728, AID449731, AID488942, AID488955, AID488956]; type: functional
Nonstructural protein 1 = Nonstructural protein 1 (Influenza A virus, UniProt Q194T2); type: functional, Influenza A virus (A/California/07/2009(H1N1))
Exodeoxyribonuclease V = Exodeoxyribonuclease V (Escherichia coli (strain K12), UniProt P04993+P07648+P08394); assay: RecBCD inhibition via phage-restricted bacterial growth – absorbance, V66 E. coli, mutant T4 phage, counter-screen for AddAB inhibitor project, dose response (AID 492957); type: functional, cell-based, Escherichia coli str. K-12 substr. MG1655

T2 sequence (P51452 whole entry): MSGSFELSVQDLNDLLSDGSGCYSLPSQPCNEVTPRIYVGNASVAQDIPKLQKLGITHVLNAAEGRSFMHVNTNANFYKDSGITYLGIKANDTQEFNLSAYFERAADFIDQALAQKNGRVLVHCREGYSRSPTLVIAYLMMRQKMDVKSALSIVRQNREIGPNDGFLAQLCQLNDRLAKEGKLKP
Sequence of Intestinal-type alkaline phosphatase (Homo sapiens, UniProt P09923) (P09923 whole entry): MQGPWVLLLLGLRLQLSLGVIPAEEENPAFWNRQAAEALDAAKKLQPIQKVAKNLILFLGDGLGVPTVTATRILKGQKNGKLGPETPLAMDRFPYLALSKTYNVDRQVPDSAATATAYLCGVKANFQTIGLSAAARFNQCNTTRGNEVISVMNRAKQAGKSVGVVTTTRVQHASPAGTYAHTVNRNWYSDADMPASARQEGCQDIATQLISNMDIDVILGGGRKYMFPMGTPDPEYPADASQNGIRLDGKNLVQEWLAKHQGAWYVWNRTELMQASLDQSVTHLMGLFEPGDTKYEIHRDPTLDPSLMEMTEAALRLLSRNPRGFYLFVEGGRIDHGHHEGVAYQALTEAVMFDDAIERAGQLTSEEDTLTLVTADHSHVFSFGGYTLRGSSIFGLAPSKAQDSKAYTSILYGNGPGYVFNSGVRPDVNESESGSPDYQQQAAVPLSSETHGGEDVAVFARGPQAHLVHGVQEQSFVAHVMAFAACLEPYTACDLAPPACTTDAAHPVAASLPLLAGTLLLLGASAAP
Sequence of Likely tRNA 2'-phosphotransferase (Q5A7N4 whole entry): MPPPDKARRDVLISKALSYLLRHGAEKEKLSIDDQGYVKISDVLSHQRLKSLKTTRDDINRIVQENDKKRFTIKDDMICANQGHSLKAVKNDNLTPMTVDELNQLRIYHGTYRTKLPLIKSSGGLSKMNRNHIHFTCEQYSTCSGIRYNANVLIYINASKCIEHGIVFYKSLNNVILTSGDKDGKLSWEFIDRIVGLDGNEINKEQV
Sequence of Lysine-specific demethylase 4A (O75164 whole entry): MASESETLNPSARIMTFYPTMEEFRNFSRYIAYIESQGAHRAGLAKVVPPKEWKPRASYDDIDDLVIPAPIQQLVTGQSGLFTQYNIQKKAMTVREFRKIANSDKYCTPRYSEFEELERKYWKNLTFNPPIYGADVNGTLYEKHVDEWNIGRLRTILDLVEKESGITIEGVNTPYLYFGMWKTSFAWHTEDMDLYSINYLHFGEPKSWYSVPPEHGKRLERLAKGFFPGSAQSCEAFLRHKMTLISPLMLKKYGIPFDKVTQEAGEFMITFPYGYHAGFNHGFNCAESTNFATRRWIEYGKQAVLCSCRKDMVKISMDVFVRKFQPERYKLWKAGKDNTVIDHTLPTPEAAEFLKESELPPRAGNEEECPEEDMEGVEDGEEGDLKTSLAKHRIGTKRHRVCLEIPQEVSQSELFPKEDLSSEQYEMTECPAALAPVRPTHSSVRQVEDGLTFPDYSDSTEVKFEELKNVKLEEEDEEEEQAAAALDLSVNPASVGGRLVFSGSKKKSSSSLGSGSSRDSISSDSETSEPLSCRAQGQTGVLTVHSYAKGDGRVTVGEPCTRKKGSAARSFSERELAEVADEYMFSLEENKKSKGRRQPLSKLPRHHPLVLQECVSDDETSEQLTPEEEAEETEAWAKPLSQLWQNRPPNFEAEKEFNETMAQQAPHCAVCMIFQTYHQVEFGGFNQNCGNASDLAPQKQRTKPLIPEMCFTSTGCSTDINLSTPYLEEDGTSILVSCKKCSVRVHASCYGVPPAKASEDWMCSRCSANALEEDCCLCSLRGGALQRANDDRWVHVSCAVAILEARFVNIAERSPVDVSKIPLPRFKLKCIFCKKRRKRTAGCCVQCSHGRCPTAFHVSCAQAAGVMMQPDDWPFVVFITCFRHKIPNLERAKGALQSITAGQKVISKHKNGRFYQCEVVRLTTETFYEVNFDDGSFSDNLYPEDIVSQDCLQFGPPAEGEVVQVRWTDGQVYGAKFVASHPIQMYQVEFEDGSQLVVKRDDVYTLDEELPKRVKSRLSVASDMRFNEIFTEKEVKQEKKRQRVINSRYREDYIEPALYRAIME
Sequence of Procathepsin L (P07711 whole entry): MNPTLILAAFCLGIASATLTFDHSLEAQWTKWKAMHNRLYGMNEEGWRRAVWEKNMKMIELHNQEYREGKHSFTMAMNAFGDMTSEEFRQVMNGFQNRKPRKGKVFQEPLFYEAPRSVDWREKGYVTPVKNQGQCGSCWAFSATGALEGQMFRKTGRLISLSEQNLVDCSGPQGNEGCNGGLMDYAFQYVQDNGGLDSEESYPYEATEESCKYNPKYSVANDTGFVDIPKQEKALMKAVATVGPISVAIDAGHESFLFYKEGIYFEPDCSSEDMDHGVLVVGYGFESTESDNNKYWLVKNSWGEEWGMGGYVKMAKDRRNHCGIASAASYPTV
Sequence of Voltage-dependent T-type calcium channel subunit alpha-1H (O95180 whole entry): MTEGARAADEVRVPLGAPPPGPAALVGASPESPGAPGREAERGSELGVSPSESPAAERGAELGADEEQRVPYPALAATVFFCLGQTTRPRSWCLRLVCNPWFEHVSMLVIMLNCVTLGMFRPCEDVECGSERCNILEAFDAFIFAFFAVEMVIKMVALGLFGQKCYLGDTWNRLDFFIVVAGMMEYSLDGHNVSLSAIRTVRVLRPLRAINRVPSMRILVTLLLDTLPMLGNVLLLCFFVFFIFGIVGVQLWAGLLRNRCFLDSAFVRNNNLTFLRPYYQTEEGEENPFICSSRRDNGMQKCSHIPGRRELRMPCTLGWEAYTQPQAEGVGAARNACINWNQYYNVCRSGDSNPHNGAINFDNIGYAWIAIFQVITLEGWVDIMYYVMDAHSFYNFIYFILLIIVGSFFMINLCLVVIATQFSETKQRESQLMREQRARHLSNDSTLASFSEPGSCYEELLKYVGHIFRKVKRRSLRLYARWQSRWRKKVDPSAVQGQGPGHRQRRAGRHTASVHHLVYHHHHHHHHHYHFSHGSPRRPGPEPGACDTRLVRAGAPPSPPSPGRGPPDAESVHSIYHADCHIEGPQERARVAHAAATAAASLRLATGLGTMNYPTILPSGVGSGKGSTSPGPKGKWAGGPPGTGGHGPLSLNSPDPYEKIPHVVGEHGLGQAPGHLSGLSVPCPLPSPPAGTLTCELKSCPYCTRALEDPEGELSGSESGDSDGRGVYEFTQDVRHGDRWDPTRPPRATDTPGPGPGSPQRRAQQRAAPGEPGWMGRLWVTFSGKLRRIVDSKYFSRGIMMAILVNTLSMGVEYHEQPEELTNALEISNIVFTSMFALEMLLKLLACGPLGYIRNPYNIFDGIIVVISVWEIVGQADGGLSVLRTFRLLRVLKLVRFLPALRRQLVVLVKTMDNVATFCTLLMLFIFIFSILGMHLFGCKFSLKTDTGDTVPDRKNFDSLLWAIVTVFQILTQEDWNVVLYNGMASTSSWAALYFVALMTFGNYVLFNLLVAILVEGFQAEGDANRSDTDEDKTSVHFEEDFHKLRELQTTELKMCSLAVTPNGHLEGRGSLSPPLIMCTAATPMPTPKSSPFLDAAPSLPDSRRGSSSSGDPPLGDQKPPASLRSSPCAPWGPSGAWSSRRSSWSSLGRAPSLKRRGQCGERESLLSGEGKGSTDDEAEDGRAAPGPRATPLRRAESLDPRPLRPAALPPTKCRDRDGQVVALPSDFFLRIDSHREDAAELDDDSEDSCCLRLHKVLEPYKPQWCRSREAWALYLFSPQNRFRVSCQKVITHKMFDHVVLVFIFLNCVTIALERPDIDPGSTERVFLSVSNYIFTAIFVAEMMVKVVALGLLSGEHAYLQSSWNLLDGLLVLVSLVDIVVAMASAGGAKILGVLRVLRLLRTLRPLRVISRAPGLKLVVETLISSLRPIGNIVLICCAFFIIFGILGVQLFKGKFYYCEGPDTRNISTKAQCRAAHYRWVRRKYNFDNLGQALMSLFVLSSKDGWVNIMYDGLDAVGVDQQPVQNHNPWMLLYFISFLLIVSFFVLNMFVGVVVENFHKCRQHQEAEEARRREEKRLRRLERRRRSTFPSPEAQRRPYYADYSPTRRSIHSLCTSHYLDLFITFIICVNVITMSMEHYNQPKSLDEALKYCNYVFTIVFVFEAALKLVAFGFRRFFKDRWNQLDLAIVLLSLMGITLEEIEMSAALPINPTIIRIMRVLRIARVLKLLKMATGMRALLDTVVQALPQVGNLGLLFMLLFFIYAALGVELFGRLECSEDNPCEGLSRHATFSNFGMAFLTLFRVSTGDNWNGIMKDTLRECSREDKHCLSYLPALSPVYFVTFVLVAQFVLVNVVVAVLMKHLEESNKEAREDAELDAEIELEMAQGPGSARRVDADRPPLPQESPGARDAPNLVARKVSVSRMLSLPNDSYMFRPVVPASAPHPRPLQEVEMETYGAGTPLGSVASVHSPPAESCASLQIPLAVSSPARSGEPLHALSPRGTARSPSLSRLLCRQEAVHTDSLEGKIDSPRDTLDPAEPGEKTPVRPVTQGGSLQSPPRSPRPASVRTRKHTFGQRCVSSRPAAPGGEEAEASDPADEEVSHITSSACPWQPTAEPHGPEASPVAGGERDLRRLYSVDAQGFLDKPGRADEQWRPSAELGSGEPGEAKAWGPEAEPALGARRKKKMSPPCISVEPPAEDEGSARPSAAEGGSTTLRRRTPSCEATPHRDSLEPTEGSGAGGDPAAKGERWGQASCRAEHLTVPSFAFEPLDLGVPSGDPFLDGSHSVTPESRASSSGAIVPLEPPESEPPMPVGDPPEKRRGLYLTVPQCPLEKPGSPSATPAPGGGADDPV
Sequence of Guanyl-specific ribonuclease T1 (P00651 whole entry): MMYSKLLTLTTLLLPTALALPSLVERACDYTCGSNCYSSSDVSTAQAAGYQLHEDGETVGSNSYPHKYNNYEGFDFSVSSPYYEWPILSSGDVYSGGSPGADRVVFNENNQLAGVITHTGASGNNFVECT
Sequence of Nonstructural protein 1 (Q194T2 whole entry): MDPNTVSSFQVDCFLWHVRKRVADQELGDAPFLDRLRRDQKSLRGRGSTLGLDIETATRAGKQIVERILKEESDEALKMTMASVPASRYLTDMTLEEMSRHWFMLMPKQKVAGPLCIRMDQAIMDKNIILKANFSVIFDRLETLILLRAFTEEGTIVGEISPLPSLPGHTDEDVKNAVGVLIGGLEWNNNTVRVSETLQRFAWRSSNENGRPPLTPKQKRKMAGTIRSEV

## COc1ccc(OC)c(N2C(=O)/C(=C/c3ccco3)C(=O)NC2=S)c1
[1]
  IC50: < 1.23 µM (not active)
[2]
  AC50: 4.67 µM (active)
[3]
  AC50: 16.2 µM (active)
[4]
  IC50: > 55.7 µM (not active)
[5]
  IC50: < 1.23 µM (inactive)
[6]
  IC50: < 1.23 µM (inactive)
[7]
  IC50: 8.01 µM (active)
Hexokinase HKDC1
  IC50: 2.57 µM (active)

## O=C1Nc2ccccc2/C1=C1/SC(=S)N(NC(=O)c2ccccc2)C1=O
[8]
  IC50: 3.09 µM (active)
Procathepsin L
  IC50: 38.3 µM (not active)
[9]
  IC50: 6.46 µM (active)
Aspartyl aminopeptidase
  IC50: > 73.5 µM (not active)
Aminopeptidase N
  IC50: 11.2 µM (active)
[10]
  IC50: > 100 µM (inactive)

## CC(C)CCN1CC2CCC(NC(=O)c3cc(Cl)cc(Cl)c3)C2C1 (centres undefined)
[11]
  EC50: 1.8 µM (active)

## O=C(O)c1cccc(NC(=S)N/N=C/c2ccccn2)c1
[12]
  AC50: 8.63 µM (active)
[13]
  IC50: > 119 µM (inactive)
Nonstructural protein 1
  IC50: 4.06 µM (active)
Exodeoxyribonuclease V
  IC50: > 119 µM (inactive)
